In the assay the target is T1, histamine H2 -receptors (Rattus norvegicus, UniProt P25102).
T1 construct: from tissue; host or cells: stomach of living anaesthetized Sprague-Dawley rats (in vivo perfusion)
Kind of assay: Blocking activity of histamine H2-receptors: inhibition of histamine-induced perfusate pH decrease (gastric acid secretion) in perfused stomach of anaesthetized rats. It counts as in vivo, Sprague-Dawley albino male rats. The following applies: for ED50: rat, iv, anaesthetized rats, perfused stomach, histamine 0.325 μmols/kg/min, test drugs via femoral veins, read-out: ED50 (inhibition rate of maximal pH decrease in relation to initial pH); for times more active than Cimetidine, according to ED50 values: ratio of ED50 values to Cimetidine (Table 1). As for the experimental part:
The blocking activity of histamine H2 -receptors was tested in Sprague-Dawley albino male rats weighing 350-450 g. Animals subject to 18-hour fasting were anaesthetized with urethane (1.5 g/kg i.p.), after which a longitudinal incision was performed on the abdominal wall, and pylorus and esophagus were cannulated for subject perfusion. In addition, femoral veins were cannulated for administration of test drugs and histamine solution.
The animals' stomachs were perfused with 1/8000N NaOH diluted solution at a rate of 2 ml/min. The perfusion liquid was then circulated through a 3 ml-volume chamber provided with a pH meter electrode. After calibrating the pH, histamine was perfused at 0.325 μmols/kg/min. The histamine perfusion caused a decrease of the perfusion liquid pH, which was inhibited by the compounds of the present invention.

Where a name gives a salt, the structure may show the parent alone.

T1 sequence (P25102 whole entry, the tested form may be a part): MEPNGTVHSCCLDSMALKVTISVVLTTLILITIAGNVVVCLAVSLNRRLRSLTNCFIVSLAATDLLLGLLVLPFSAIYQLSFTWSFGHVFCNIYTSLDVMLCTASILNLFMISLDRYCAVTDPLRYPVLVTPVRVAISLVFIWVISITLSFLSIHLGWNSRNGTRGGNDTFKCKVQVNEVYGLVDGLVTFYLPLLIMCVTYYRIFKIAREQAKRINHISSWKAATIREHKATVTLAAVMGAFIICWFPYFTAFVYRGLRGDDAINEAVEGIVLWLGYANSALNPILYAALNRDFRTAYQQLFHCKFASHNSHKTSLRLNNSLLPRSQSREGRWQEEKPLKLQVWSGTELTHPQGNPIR

With `CN/C(=N/CCSCc1nc[nH]c1C)NC#N` [Cimetidine, reference compound], the ED50 turned out to be 5.6 µmol/kg. As to `N#CN=CNCCSCc1csc(NC(=N)N)n1` [Example 3, N-cyano-N'-[2-[[[2-[(aminoiminomethyl)amino]-4-thiazolyl]methyl]thio]ethyl]formamidine maleate acid], the ED50 is 2.17 µmol/kg and the “times more active than Cimetidine, according to ED50 values” is on record as 2.6 times. On to `N#CN=CNCCCOc1cccc(CN2CCCCC2)c1` [Example 4, N-cyano-N'-[3-[3-(1-piperidinylmethyl)phenoxy]propyl]formamidine hydrochloride], for which the ED50 is 3.2 µmol/kg and the “times more active than Cimetidine, according to ED50 values” was found to be 1.8 times.

(Values after patent publication US4600780A, “N-cyano-formamidines” (Ferrer International, S.A., priority 1983, dated 1986).)
